From ChEMBL document CHEMBL1201862, “PubChem BioAssay data set” (2004)
Activity calls are given as the source filed them.

How the values were obtained:
[1] = target: Peroxisome proliferator-activated receptor gamma/Nuclear receptor coactivator 2 (Homo sapiens, UniProt P37231); assay: (§1) TR-FRET dose response biochemical High Throughput Screening assay for agonists of the steroid receptor coactivator 2 (SRC-2) recruitment by the peroxisome proliferator-activated receptor gamma (PPAR gamma): non-selective agonists. [Related pubchem assays: 1297, 1032 ]; type: functional
[2] = target: Peroxisome proliferator-activated receptor gamma/Nuclear receptor coactivator 1 (Homo sapiens, UniProt P37231); assay: as §1, with “1 (SRC-1)” for “2 (SRC-2)”, “assays (depositor defined):AID1300, AID1808, AID504735, AID631]” for “assays: 1297, 1032 ]”; type: protein assay
[3] = target: Peroxisome proliferator-activated receptor gamma/Nuclear receptor coactivator 3 (Homo sapiens, UniProt P37231); assay: as §1, with “3 (SRC-3)” for “2 (SRC-2)”, “1301 (Confirmation screen.), 1048 (Primary screen.)]” for “1297, 1032 ]”; type: functional
[4] = NIH3T3 cell viability loss – ATP luminescence, mouse fibroblasts, counter-screen, dose response (AID 2010); type: functional, cell-based;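 also: cells exposed to compound for about 90 hours before reading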
[5] = target: T1, Cytochrome P450 3A4 (Homo sapiens, UniProt P08684);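 also: CYP3A4 tested as one member of a cytochrome P450 panel screen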
[6] = loss of viability in HepG2 cells – cell-based, CellTiter-Glo, cherry-picked, cytotoxicity control for Shn3 inhibitor project, dose response (AID 624134); type: functional
[7] = reduction of Shn3 3'UTR-driven luciferase in osteoblasts – cell-based, Clone20 osteoblasts, firefly luciferase, cherry-picked, dose response (AID 624132); type: functional;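 also: firefly luciferase luminescence from reporter carrying the Shn3 3'UTR in osteoblasts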
[8] = target: Cytochrome P450 2C9 (Homo sapiens, UniProt P11712)
[9] = Trypanosoma cruzi growth suppression in host cells – NIH3T3 host cells, beta-gal luminescence, confirmation (AID 2044); type: functional, cell-based;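 also: intracellular parasites grown in NIH/3T3 mouse fibroblasts as host cells; luminescent beta-galactosidase reporter signal from transgenic T. cruzi replicating inside host cells; inhibitors lower the luminescence signal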
[10] = tested on: INS1; assay: INS-1E survival protection against cytokine death – cell-based, luminescence, retest, dose response (AID 449756); type: functional; conditions: Rattus norvegicus;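 also: cell death triggered by IL-1 beta plus TNF-alpha plus IFN-gamma mixture; protective hits raise ATP signal compared with cytokine alone wells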
[11] = non-specific 3'UTR reporter inhibition in Clone20-Shn3RL – cell-based, Renilla luciferase, cherry-picked, counter-screen for Shn3 inhibitor project, dose response (AID 624133); type: functional
[12] = tested on: HEK293; assay: EBV LMP1 TES2 canonical NF-kB signalling blockers – cell-based, HEK293, luciferase, cherry-pick, dose response (AID 588343); type: functional; conditions: Homo sapiens
[13] = tested on: H9c2; assay: cells; type: functional, cell-based; conditions: Rattus norvegicus, H9c2, Myocardium;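 also: confirmatory concentration-response retest of ultra-high-throughput screening hits for modulation of myocardial damage; cell death induced by hydrogen peroxide oxidative stress; compound pretreatment for 60 min then peroxide exposure for 2 h; potency is for protecting the cells against peroxide damage rather than for killing them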
[14] = target: Prothrombin (Bos taurus, UniProt P00735); assay: thrombin protease inhibitors – biochemical, fluorescence polarization, uHTS hits, dose response (AID 602369); type: functional
[15] = target: 72 kDa type IV collagenase (Homo sapiens, UniProt P08253); assay: Dose Response validation of uHTS RPN11 inhibitor hits using a MMP-2 Fluorescence assay.; type: functional
[16] = target: 26S proteasome non-ATPase regulatory subunit 14 (Homo sapiens, UniProt O00487); assay: inhibition of proteasome subunit RPN11 – biochemical, fluorescence polarization, uHTS hits, confirmation (AID 602368); type: functional
[17] = Luminescence Cell-Based Dose Confirmation HTS to Identify Activators of 5'UTR Stem-Loop Driven Alpha-Synuclein mRNA Translation in H4 Neuroglioblastoma Cells. [Related pubchem assays: 1829 (Project Summary), 1814 (Primary HTS)]; type: functional
[18] = Luminescence Cell-Based Dose Response HTS to Identify Activators of Luciferase Translation or Activity in H4 […] Cells. [Related pubchem assays: 1829 (Project Summary), 1814 (Primary HTS)]; type: functional
[19] = tested on: HeLa; assay: ATP-based viability loss in HeLa cells – cell-based, CellTiter-Glo luminescence, cherry-pick samples, cytotoxicity control for MITF activator project, dose response (AID 540259); type: functional; conditions: Homo sapiens
[20] = tested on: H4; assay: Luminescence Cell-Based Dose Response HTS to Identify Activators of 5'UTR Stem-Loop Driven Prion Protein mRNA Translation in H4 Neuroglioblastoma Cells. [Related pubchem assays: 1829 (Project Summary), 1814 (Primary HTS)]; type: functional; conditions: Homo sapiens
[21] = target: T1, Cytochrome P450 3A4; remark: listed apart in the source

26S proteasome non-ATPase regulatory subunit 14, sequence (O00487 whole entry): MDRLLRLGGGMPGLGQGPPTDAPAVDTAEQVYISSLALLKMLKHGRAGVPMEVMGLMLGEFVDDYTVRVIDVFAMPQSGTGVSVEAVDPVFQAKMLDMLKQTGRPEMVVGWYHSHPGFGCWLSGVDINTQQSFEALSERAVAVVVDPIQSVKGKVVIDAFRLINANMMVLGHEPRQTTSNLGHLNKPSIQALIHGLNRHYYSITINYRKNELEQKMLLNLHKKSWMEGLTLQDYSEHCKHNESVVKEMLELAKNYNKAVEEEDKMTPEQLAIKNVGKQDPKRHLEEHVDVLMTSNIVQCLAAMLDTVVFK
T1 sequence (P08684 whole entry): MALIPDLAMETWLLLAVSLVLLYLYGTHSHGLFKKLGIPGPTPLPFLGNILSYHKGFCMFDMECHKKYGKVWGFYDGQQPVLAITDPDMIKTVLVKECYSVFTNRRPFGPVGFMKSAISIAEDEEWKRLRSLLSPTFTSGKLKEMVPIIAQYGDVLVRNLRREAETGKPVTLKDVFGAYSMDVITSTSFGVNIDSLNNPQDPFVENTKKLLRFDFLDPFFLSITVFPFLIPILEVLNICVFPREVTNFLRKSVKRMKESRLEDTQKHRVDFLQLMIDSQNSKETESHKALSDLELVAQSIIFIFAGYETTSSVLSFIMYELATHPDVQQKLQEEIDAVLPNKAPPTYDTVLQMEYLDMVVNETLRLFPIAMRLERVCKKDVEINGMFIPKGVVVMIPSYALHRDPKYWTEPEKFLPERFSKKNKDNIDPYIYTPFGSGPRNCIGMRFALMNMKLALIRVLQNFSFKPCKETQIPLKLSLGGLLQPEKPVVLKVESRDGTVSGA
72 kDa type IV collagenase, sequence (P08253 whole entry): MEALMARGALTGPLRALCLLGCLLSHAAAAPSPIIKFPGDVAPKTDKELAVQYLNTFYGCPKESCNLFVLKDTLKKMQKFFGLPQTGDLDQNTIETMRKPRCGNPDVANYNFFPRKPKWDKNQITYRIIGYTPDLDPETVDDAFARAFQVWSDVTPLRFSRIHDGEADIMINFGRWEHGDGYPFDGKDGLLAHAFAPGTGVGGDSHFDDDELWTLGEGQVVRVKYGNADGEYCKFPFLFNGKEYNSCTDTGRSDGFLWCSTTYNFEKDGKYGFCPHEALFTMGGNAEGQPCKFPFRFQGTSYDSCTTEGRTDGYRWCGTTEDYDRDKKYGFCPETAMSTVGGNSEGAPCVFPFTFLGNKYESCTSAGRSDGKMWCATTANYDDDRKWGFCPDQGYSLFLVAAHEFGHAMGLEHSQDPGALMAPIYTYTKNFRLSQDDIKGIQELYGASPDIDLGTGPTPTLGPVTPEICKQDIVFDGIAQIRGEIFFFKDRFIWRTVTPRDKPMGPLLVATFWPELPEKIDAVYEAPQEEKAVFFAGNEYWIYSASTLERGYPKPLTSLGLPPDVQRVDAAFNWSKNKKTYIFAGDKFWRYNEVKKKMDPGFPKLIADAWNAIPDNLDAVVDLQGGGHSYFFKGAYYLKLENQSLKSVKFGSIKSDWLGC
Cytochrome P450 2C9, sequence (P11712 whole entry): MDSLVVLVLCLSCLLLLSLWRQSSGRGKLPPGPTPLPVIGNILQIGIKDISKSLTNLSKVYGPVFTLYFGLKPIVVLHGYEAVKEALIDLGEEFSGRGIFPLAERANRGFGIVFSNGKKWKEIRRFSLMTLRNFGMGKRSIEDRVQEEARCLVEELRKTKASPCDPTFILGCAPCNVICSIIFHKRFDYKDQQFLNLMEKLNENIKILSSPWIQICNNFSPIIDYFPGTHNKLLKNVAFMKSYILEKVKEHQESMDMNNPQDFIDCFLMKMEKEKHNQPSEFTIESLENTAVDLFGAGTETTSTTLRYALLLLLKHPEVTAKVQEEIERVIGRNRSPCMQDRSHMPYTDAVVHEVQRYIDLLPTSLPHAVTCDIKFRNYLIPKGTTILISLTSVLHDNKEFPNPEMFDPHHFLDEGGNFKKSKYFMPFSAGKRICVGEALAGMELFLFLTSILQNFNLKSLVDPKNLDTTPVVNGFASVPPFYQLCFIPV
Peroxisome proliferator-activated receptor gamma/Nuclear receptor coactivator 1, sequence (P37231 whole entry): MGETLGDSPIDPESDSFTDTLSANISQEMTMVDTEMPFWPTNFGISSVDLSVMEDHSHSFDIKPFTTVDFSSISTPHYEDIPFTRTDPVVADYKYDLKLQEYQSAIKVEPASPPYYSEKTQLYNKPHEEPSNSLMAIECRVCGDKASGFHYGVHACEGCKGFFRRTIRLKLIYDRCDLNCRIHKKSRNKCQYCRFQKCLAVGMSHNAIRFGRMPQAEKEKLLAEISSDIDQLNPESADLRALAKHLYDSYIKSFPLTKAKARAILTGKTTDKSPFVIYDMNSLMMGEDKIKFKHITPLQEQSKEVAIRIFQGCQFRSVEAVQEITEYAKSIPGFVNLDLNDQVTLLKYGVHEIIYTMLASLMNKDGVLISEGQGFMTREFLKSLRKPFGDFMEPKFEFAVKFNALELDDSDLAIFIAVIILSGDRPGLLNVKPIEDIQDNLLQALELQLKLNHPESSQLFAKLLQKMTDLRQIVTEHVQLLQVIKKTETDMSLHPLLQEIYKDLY
Peroxisome proliferator-activated receptor gamma/Nuclear receptor coactivator 1, sequence (Q15788 whole entry, further chain): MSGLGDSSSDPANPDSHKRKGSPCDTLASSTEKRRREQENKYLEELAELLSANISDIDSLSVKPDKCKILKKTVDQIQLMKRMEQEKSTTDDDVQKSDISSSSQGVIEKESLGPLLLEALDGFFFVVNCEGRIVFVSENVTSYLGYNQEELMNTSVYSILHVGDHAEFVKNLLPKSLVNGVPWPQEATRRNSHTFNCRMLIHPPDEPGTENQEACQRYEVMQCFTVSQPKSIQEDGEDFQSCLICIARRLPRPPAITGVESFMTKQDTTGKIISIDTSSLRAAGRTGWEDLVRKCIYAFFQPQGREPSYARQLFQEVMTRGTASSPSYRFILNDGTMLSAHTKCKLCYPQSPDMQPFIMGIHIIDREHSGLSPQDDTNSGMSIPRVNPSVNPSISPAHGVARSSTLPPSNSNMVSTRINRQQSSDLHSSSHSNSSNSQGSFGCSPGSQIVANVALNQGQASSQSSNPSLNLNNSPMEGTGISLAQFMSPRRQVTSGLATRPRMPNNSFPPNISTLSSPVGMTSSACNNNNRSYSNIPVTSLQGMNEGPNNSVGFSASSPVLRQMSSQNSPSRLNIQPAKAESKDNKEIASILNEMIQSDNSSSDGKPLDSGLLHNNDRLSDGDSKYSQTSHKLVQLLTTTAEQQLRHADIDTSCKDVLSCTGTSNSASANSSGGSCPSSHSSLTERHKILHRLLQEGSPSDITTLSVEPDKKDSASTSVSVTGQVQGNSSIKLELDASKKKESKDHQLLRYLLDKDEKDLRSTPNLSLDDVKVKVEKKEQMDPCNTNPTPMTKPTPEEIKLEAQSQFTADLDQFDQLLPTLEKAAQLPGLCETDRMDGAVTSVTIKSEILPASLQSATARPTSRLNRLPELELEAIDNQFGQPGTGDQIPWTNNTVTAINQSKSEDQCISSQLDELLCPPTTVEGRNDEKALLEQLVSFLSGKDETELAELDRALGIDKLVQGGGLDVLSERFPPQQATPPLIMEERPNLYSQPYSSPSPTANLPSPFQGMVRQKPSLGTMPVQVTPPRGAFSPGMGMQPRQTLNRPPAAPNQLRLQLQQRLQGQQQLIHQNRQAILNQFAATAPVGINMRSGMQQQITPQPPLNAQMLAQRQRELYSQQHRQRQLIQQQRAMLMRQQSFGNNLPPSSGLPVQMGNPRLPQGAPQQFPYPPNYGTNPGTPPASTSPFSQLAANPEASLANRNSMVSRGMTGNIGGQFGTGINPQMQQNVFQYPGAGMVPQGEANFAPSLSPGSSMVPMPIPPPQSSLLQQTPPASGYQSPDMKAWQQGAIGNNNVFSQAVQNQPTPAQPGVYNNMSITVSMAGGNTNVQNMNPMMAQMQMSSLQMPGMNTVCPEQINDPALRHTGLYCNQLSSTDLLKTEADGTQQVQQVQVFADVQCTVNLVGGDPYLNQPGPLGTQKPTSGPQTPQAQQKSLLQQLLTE

In the case of `COc1cc2c(cc1OC)C1=NC(=O)CN1C(SCc1ccccc1C)=N2`, the EC50 [1] is reported as 82.7 µM (not active), the EC50 [2] is reported as > 79.4 µM (inactive) and the EC50 [3] is reported as > 79.4 µM (not active).
In the case of `O=C(Nc1ccc(-c2nc3ccccc3o2)cc1)c1ccc(N2CCOCC2)c([N+](=O)[O-])c1`, the EC50 [4] is reported as > 60 µM (not active), the AC50 [5] is reported as 11.2 µM (inconclusive) and the AC50 [6] is reported as > 70 µM (inactive). For the same molecule, the AC50 [7] was 3.35 µM (active), the AC50 [8] was 2.82 µM (inconclusive) and the EC50 [9] was 1.93 µM (active). The AC50 [10] was 5.18 µM (active) and the AC50 [11] was 3.62 µM (active).
In the case of `COc1ccc(-c2oc3ncnc(NCCN4CCOCC4)c3c2-c2ccc(OC)cc2)cc1`, the AC50 [12] is reported as 9.19 µM (active) and the IC50 [13] is reported as > 79 µM (inactive).
With `O=C(CC1OC(=O)c2ccccc21)Nc1cc(Cl)ccc1N1CCCC1` (centres undefined) the IC50 [14] was > 100 µM (inactive), the IC50 [15] was > 100 µM (inactive) and the IC50 [16] was 14.1 µM (active).
For `Cc1sc2nc(CSCC(=O)Nc3ccccc3C#N)[nH]c(=O)c2c1C`, the IC50 [14] was 8.26 µM (active), the IC50 [15] was > 100 µM (inactive) and the IC50 [16] was 6.2 µM (active).
With `CC(=O)c1sc(N/N=C/c2cccc(O)c2)nc1C` the EC50 [17] was 6.61 µM (active), the EC50 [18] was 8.4 µM (active) and the AC50 [19] was 77.2 µM (active). For the same molecule, the EC50 [20] was 23.2 µM (active).
For `Cl.OCCN1CCN(CCOc2cccc(Cl)c2)CC1`, the AC50 [21] was “inconclusive”, the EC50 [4] was > 60 µM (inconclusive) and the EC50 [9] was 0.413 µM (active).
In the case of `CC1CCN(C(=O)/C(=C\c2cccs2)NC(=O)c2ccccc2)CC1`, the AC50 [12] is reported as > 350 µM (inactive).
With `N#Cc1cc(C#N)c(N2CCN(c3ccccn3)CC2)nc1N` the AC50 [19] was 31.7 µM (active).
In the case of `CC(C)(C)C(=O)c1cnc(Nc2ccccc2Cl)s1`, the AC50 [19] is reported as 121 µM (active).
